Results from ChEMBL document CHEMBL1137255, “HIV-1 protease mutations and inhibitor modifications monitored on a series of complexes. Structural basis for the effect of the A71V mutation on the active site” (J Med Chem, 2006).

Legend:
[1] = target: T1, Human immunodeficiency virus type 1 protease (Human immunodeficiency virus 1, UniProt Q72874); assay: Inhibition of wild type HIV1 protease
[2] = target: T1, Human immunodeficiency virus type 1 protease; assay: Inhibition of HIV1 protease I8 mutant

Structure (SMILES) | Ki [1] [nM] | Ki [2] [nM]
CC(C)(C)OC(=O)N[C@@H](Cc1ccccc1)[C@@H](O)C[C@@H](Cc1ccccc1)C(=O)N[C@@H](CCC(N)=O)C(=O)N[C@@H](Cc1ccccc1)C(N)=O | 0.02 | 0.26
CC(C)(C)OC(=O)N[C@@H](Cc1ccccc1)[C@@H](O)CN[C@@H](Cc1ccccc1)C(=O)N[C@@H](CCC(=O)O)C(=O)N[C@@H](Cc1ccccc1)C(N)=O | 0.15 | 86
CC(C)(C)OC(=O)N[C@@H](Cc1ccccc1)[C@@H](O)CN[C@@H](Cc1ccccc1)C(=O)N[C@@H](CCC(N)=O)C(=O)N[C@@H](Cc1ccccc1)C(N)=O | 33 | 1000
